ChEMBL document CHEMBL3885861, “Open TG-GATES”

Organism: Rattus norvegicus
Test: Open TG-GATES - Regimen: Single
Assay type: toxicity, organism-based, Sprague-Dawley
Parameters: regimen Single, gender Male, age 6 weeks
Conditions: in vivo, po, 6 mg/kg, route gavage, dose level Low; for APTT / Bas / Eos / Fbg / Hb / Ht / Lym / MCH / MCHC / MCV / Mono / Neu / PT / Plat / RBC / Ret / WBC: tissue Blood; for KIDNEY_L / KIDNEY_R / KIDNEY_TOTAL: tissue Kidney; for LIVER: tissue Liver; for A/G / ALP / ALT / AST / BUN / CRE / Ca / Cl / DBIL / GLC / IP / K / LDH / Na / PL / RALB / TBIL / TC / TG / TP / gamma-GTP: tissue Plasma

In the case of `CC(C)NNC(=O)c1ccncc1` [IPRONIAZID], the TERMINAL_BW (3 h) is reported as 204.8 g, the APTT (3 h) is reported as 22.1 s and the Bas (3 h) is reported as 0%. It also gave an Eos (3 h) of 1%, a Fbg (3 h) of 317 mg/dL and a Hb (3 h) of 13.4 g/dL. It also gave a Ht (3 h) of 38.8%, a Lym (3 h) of 77% and an MCH (3 h) of 21.1 pg. For the same molecule, the MCHC (3 h) was 34.5%, the MCV (3 h) was 61.2 fL and the Mono (3 h) was 1.8%. For the same molecule, the Neu (3 h) was 20%, the PT (3 h) was 16.3 s and the Plat (3 h) was 129.7 x10_4/uL. It also gave an RBC (3 h) of 634.8 x10_4/ul, a Ret (3 h) of 7.5% and a WBC (3 h) of 72.5 x10_2/uL. It also gave a KIDNEY_L (3 h) of 1 g, a KIDNEY_R (3 h) of 1 g and a KIDNEY_TOTAL (3 h) of 2 g. It also gave an LIVER (3 h) of 9.7 g, an A/G (3 h) of 1.2 and an ALP (3 h) of 1455.8 IU/L. For the same molecule, the ALT (3 h) was 40.8 IU/L, the AST (3 h) was 83.8 IU/L and the BUN (3 h) was 13.4 mg/dL. The CRE (3 h) was 0.1 mg/dL, the Ca (3 h) was 10.6 mg/dL and the Cl (3 h) was 106.8 meq/L. It also gave a DBIL (3 h) of 0.002 mg/dL, a GLC (3 h) of 187.2 mg/dL and an IP (3 h) of 9 mg/dL. The K (3 h) was 4.1 meq/L, the LDH (3 h) was 208.2 IU/L and the Na (3 h) was 142 meq/L. The PL (3 h) was 132.4 mg/dL, the RALB (3 h) was 3.1 g/dL and the TBIL (3 h) was 0.016 mg/dL. The TC (3 h) was 67 mg/dL, the TG (3 h) was 73.2 mg/dL and the TP (3 h) was 5.6 g/dL. For the same molecule, the gamma-GTP (3 h) was 1.4 IU/L, the TERMINAL_BW (6 h) was 201.3 g and the APTT (6 h) was 22.8 s. The Bas (6 h) was 0%, the Eos (6 h) was 0.6% and the Fbg (6 h) was 317 mg/dL. It also gave a Hb (6 h) of 13.1 g/dL, a Ht (6 h) of 38.4% and a Lym (6 h) of 78.8%. It also gave an MCH (6 h) of 20.9 pg, an MCHC (6 h) of 34.1% and an MCV (6 h) of 61.2 fL. It also gave a Mono (6 h) of 2.2%, a Neu (6 h) of 17.8% and a PT (6 h) of 15.6 s. For the same molecule, the Plat (6 h) was 118.4 x10_4/uL, the RBC (6 h) was 627.2 x10_4/ul and the Ret (6 h) was 7.4%. For the same molecule, the WBC (6 h) was 69.8 x10_2/uL, the KIDNEY_L (6 h) was 0.9 g and the KIDNEY_R (6 h) was 0.9 g. For the same molecule, the KIDNEY_TOTAL (6 h) was 1.9 g, the LIVER (6 h) was 8.9 g and the A/G (6 h) was 1.2. For the same molecule, the ALP (6 h) was 1305.2 IU/L, the ALT (6 h) was 36.8 IU/L and the AST (6 h) was 73.2 IU/L. The BUN (6 h) was 9.6 mg/dL, the CRE (6 h) was 0.2 mg/dL and the Ca (6 h) was 10.6 mg/dL. The Cl (6 h) was 106.8 meq/L, the DBIL (6 h) was 0.002 mg/dL and the GLC (6 h) was 182.4 mg/dL. The IP (6 h) was 9.2 mg/dL, the K (6 h) was 4.3 meq/L and the LDH (6 h) was 225.2 IU/L. It also gave a Na (6 h) of 141.6 meq/L, a PL (6 h) of 135.2 mg/dL and an RALB (6 h) of 3.1 g/dL. For the same molecule, the TBIL (6 h) was 0.014 mg/dL, the TC (6 h) was 74.2 mg/dL and the TG (6 h) was 62.2 mg/dL. It also gave a TP (6 h) of 5.5 g/dL, a gamma-GTP (6 h) of 1 IU/L and a TERMINAL_BW (9 h) of 205.8 g. It also gave an APTT (9 h) of 22 s, a Bas (9 h) of 0% and an Eos (9 h) of 1%. The Fbg (9 h) was 323.2 mg/dL, the Hb (9 h) was 13.2 g/dL and the Ht (9 h) was 38.7%. It also gave a Lym (9 h) of 77.8%, an MCH (9 h) of 20.8 pg and an MCHC (9 h) of 34.1%. It also gave an MCV (9 h) of 60.9 fL, a Mono (9 h) of 2% and a Neu (9 h) of 18.6%. It also gave a PT (9 h) of 15.8 s, a Plat (9 h) of 120.2 x10_4/uL and an RBC (9 h) of 635.6 x10_4/ul. It also gave a Ret (9 h) of 7.8%, a WBC (9 h) of 99.2 x10_2/uL and a KIDNEY_L (9 h) of 0.9 g. The KIDNEY_R (9 h) was 1 g, the KIDNEY_TOTAL (9 h) was 1.9 g and the LIVER (9 h) was 8.7 g. The A/G (9 h) was 1.2, the ALP (9 h) was 1353 IU/L and the ALT (9 h) was 37.2 IU/L. The AST (9 h) was 72 IU/L, the BUN (9 h) was 12.8 mg/dL and the CRE (9 h) was 0.2 mg/dL. It also gave a Ca (9 h) of 10.4 mg/dL, a Cl (9 h) of 106.8 meq/L and a DBIL (9 h) of 0.004 mg/dL. For the same molecule, the GLC (9 h) was 178.8 mg/dL, the IP (9 h) was 10 mg/dL and the K (9 h) was 4.2 meq/L. For the same molecule, the LDH (9 h) was 172.6 IU/L, the Na (9 h) was 141.4 meq/L and the PL (9 h) was 130.6 mg/dL. The RALB (9 h) was 3 g/dL, the TBIL (9 h) was 0.014 mg/dL and the TC (9 h) was 74 mg/dL. The TG (9 h) was 72.2 mg/dL, the TP (9 h) was 5.5 g/dL and the gamma-GTP (9 h) was 1.4 IU/L. It also gave a TERMINAL_BW (24 h) of 218.2 g, an APTT (24 h) of 21.7 s and a Bas (24 h) of 0%. For the same molecule, the Eos (24 h) was 1%, the Fbg (24 h) was 323.4 mg/dL and the Hb (24 h) was 13.2 g/dL. It also gave a Ht (24 h) of 38.3%, a Lym (24 h) of 83.8% and an MCH (24 h) of 21.2 pg. For the same molecule, the MCHC (24 h) was 34.5%, the MCV (24 h) was 61.3 fL and the Mono (24 h) was 2.6%. The Neu (24 h) was 12.2%, the PT (24 h) was 16.6 s and the Plat (24 h) was 119.6 x10_4/uL. It also gave an RBC (24 h) of 624 x10_4/ul, a Ret (24 h) of 7.1% and a WBC (24 h) of 95 x10_2/uL. For the same molecule, the KIDNEY_L (24 h) was 1 g, the KIDNEY_R (24 h) was 1 g and the KIDNEY_TOTAL (24 h) was 1.9 g. For the same molecule, the LIVER (24 h) was 10.2 g, the A/G (24 h) was 1.2 and the ALP (24 h) was 1506.4 IU/L. It also gave an ALT (24 h) of 43.2 IU/L, an AST (24 h) of 74.6 IU/L and a BUN (24 h) of 15.2 mg/dL. It also gave a CRE (24 h) of 0.2 mg/dL, a Ca (24 h) of 10.7 mg/dL and a Cl (24 h) of 106.4 meq/L. It also gave a DBIL (24 h) of 0.004 mg/dL, a GLC (24 h) of 179.8 mg/dL and an IP (24 h) of 7.4 mg/dL. The K (24 h) was 4.6 meq/L, the LDH (24 h) was 255 IU/L and the Na (24 h) was 141.6 meq/L. The PL (24 h) was 148.8 mg/dL, the RALB (24 h) was 3 g/dL and the TBIL (24 h) was 0.008 mg/dL. For the same molecule, the TC (24 h) was 83.2 mg/dL, the TG (24 h) was 98.8 mg/dL and the TP (24 h) was 5.5 g/dL. It also gave a gamma-GTP (24 h) of 1.6 IU/L.
